This note sets out measurements from ChEMBL document CHEMBL1828555, “Primary amino acid derivatives: substitution of the 4'-N'-benzylamide site in (R)-N'-benzyl 2-amino-3-methylbutanamide, (R)-N'-benzyl 2-amino-3,3-dimethylbutanamide, and (R)-N'-benzyl 2-amino-3-methoxypropionamide provides potent anticonvulsants with pain-attenuating properties” (J Med Chem, 2011).

Each structure is given as a SMILES string. Active and inactive are the calls of the source. The calls are words filed in the database; no cut-off is given here. Some results are limits rather than exact numbers.

Data set [1] has as its system Mus musculus. Kind of data set: Anticonvulsant activity in ip dosed albino CF1 mouse assessed as protection against maximal electroshock-induced seizure after 30 mins. The format is functional. To be noted: 0.5 h. A general note: In the maximal electroshock model the usual endpoint is tonic extension of the hind limbs.
In data set [2] the test system is Rattus norvegicus. Kind of data set: Anticonvulsant activity in po dosed albino Sprague-Dawley rat assessed as time of peak effect for protection against maximal electroshock seizure. Format: functional.
For data set [3], the system named is Rattus norvegicus. Kind of data set: Anticonvulsant activity in po dosed albino Sprague-Dawley rat assessed as protection against maximal electroshock seizure. Format: functional.
A short description of data set [4]: Toxicity in po dosed albino Sprague-Dawley rat assessed as behavioural toxicity. The following applies: in vivo. The format is organism-based.
In data set [5] the test system is Rattus norvegicus. Kind of data set: Protective index, ratio of TD50 for po dosed albino Sprague-Dawley rat to ED50 for po dosed albino Sprague-Dawley rat by maximal electroshock test. Format: functional.
Data set [6] is described as follows: Neurotoxicity in ip dosed NMRI mouse assessed as median neurological impairing dose after 30 mins by rotarod test. To be noted: in vivo. Format: toxicity, organism-based. (In the rotarod test animals must keep their balance on a rotating rod.)
Data set [7] deals with Mus musculus. Kind of data set: Anticonvulsant activity in ip dosed albino CF1 mouse assessed as time of peak effect for protection against maximal electroshock-induced seizure. Format: functional.
Data set [8] relates to Mus musculus. Kind of data set: Anticonvulsant activity in ip dosed 6 Hz psychomotor seizure model of NMRI mouse assessed as protection against seizure after 30 minutes. Format: functional. The following applies: 0.5 h.
Data set [9] relates to Mus musculus. Kind of data set: Analgesic activity in ip dosed albino CF1 mouse assessed as reduction of formalin-induced neuropathic pain after 30 mins. The following applies: 0.5 h. Format: functional.
In data set [10] the test system is Mus musculus. Kind of data set: Protective index, ratio of TD50 for ip dosed NMRI mouse to ED50 for ip dosed NMRI mouse by maximal electroshock test. The format is functional.
A short description of data set [11]: Neurotoxicity in ip dosed albino CF1 mouse assessed as median neurological impairing dose after 30 mins. Format: toxicity, organism-based. The following applies: in vivo.
The subject of data set [12] is Mus musculus. Kind of data set: Anticonvulsant activity in ip dosed albino CF1 mouse assessed as time of peak effect for protection against 6 Hz psychomotor seizure. Format: functional.
For data set [13], the system named is Mus musculus. Kind of data set: Neurotoxicity in ip dosed albino CF1 mouse assessed as time of peak effect for median neurological impairing. The following applies: in vivo. The format is toxicity, organism-based.
In data set [14] the test system is Mus musculus. Kind of data set: Analgesic activity in ip dosed albino CF1 mouse assessed as time of peak effect for reduction of formalin-induced neuropathic pain. Format: functional.
Data set [15] relates to Mus musculus. Kind of data set: Protective index, ratio of TD50 for ip dosed albino CF1 mouse to ED50 for ip dosed albino CF1 mouse by maximal electroshock test. Format: functional.
Data set [16] relates to Mus musculus. Kind of data set: Analgesic activity in ip dosed NMRI mouse assessed as reduction in formalin-induced neuropathic pain after 30 mins. The following applies: 0.5 h. Format: functional.
Data set [17] deals with Mus musculus. Kind of data set: Anticonvulsant activity in ip dosed maximal electroshock seizure model of NMRI mouse assessed as minimal active dose after 30 mins. Format: functional.
The subject of data set [18] is Mus musculus. Kind of data set: Anticonvulsant activity in ip dosed albino CF1 mouse assessed as protection against 6 Hz psychomotor seizure after 30 mins. Format: functional. To be noted: 0.5 h.
In data set [19] the test system is Mus musculus. Kind of data set: Anticonvulsant activity in ip dosed albino CF1 mouse assessed as protection against subcutaneous pentylenetetrazol-induced seizure. Format: functional, organism-based.
Data set [20] relates to Mus musculus. Kind of data set: Anticonvulsant activity in ip dosed 6 Hz psychomotor seizure model of NMRI mouse assessed as minimal active dose after 30 mins. Format: functional.
The subject of data set [21] is Mus musculus. Kind of data set: Anticonvulsant activity in ip dosed NMRI mouse assessed as protection against maximal electroshock seizure after 30 mins. Format: functional. To be noted: 0.5 h.
Data set [22] relates to Mus musculus. Kind of data set: Analgesic activity in NMRI mouse assessed as reduction in formalin-induced neuropathic pain at 37 mg/kg, ip. Also noted: scale not given: the % may be the effect or the level left. Format: functional. The following applies: route intraperitoneal.
Data set [23] concerns Mus musculus. Kind of data set: Analgesic activity in NMRI mouse assessed as reduction in formalin-induced neuropathic pain at 12 mg/kg, ip. Format: functional, organism-based. Set-up: dose 12 mg/kg.
Data set [24] concerns Mus musculus. Kind of data set: Protective index, ratio of TD50 for ip dosed NMRI mouse to ED50 for ip dosed formalin-induced neuropathic pain model of NMRI mouse. The format is functional.
For data set [25], the system named is Mus musculus. Kind of data set: Analgesic activity in NMRI mouse assessed as reduction in formalin-induced neuropathic pain at 110 mg/kg, ip. Also noted: scale not given: the % may be the effect or the level left. To be noted: route intraperitoneal. The format is functional.
Data set [26] concerns Rattus norvegicus. Kind of data set: Toxicity in po dosed albino Sprague-Dawley rat assessed as time of peak effect for behavioural toxicity. The format is organism-based. The following applies: in vivo.

On to `CC(C)[C@@H](N)C(=O)NCc1ccccc1`, for which the ED50 (usually the dose that gives a 50% effect, or the effect in half of the subjects) is 15 mg/kg in data set [1]; 11 mg/kg in data set [3]; 74 mg/kg in [8]; 15 mg/kg in data set [9]; 20 mg/kg in [16]; less than 100 mg/kg in [18]. Moreover, the Time in data set [2], in data set [7], in data set [12], in data set [13] and in data set [14] was 0.25 h throughout. In addition, the TD50 (usually the 50% point of the dose-response relation for the toxic effect studied) in [4] was greater than 500 mg/kg. Besides, the entries for the “Ratio TD50/ED50” value in [5], in [10] and in [15] were greater than 45, 2.9 and 4.8, respectively. In addition, the TD50 at 0.5 h in [6] was 47 mg/kg; in data set [11], 70 mg/kg. Also, the MAC in [17] is 16 mg/kg.

As to `COC[C@@H](N)C(=O)NCc1ccc(-c2ccccc2)cc1.Cl`, in [19], the result was inactive. Also, the MAC in [20] stood at 59 mg/kg. For the same compound, the ED50 in data set [21] was 15 mg/kg; in data set [16], greater than 33 mg/kg.

`CC(C)(C)[C@@H](N)C(=O)NCc1ccccc1`: the ED50 in data set [1] is 14 mg/kg; in [3], 11 mg/kg; in data set [8], greater than 71 mg/kg; in [21], 13 mg/kg; in data set [16], greater than 22 mg/kg; in data set [18] it was 30 mg/kg. In addition, the Time in [2], in [7], in data set [12] and in data set [13] was 0.25 h in each case. In addition, the outcome in [19] was inactive. In addition, the TD50 in data set [4] was greater than 500 mg/kg. In addition, the results for the “Ratio TD50/ED50” value in [5], in data set [10] and in data set [15] were greater than 45, 4.7 and 4.7, respectively. Besides, the TD50 at 0.5 h in data set [11] was 66 mg/kg.

As to `COC[C@@H](N)C(=O)NCc1ccc(COc2cccc(F)c2)cc1`, the ED50 in [1] was 10 mg/kg; in data set [3], 12 mg/kg; in data set [8] it was 58 mg/kg; in data set [21], 8.9 mg/kg; in data set [18] it was less than 30 mg/kg. Moreover, the Time in [2], in data set [7] and in data set [13] was 0.5 h throughout. In addition, the outcome in data set [19] and in data set [23] was inactive. The TD50 in data set [4] is greater than 500 mg/kg. The “Ratio TD50/ED50” value is recorded as greater than 42 in [5] and 5.4 in data set [10]. Moreover, the TD50 at 0.5 h turned out to be 46 mg/kg in [6] and 30 mg/kg in data set [11]. Also, in [22], the Activity was determined as 94%.

As for `CC(C)[C@@H](N)C(=O)NCc1ccc(F)cc1`, the ED50 in data set [1] was 32 mg/kg; in data set [3] it was 21 mg/kg; in data set [9], 32 mg/kg; in [18], 63 mg/kg. Also, the Time is 0.5 h in data set [2]; 0.25 h in data set [7]; 0.25 h in data set [12]; 0.25 h in data set [13]; 0.25 h in data set [14]. The result in [19] was inactive. The TD50 in [4] was greater than 500 mg/kg. Moreover, the “Ratio TD50/ED50” value was greater than 24 in [5] and 3 in data set [15]. Also, the TD50 at 0.5 h in data set [11] came out at 97 mg/kg.

`C[C@@H](N)C(=O)NCc1ccccc1`: the results for the ED50 in [1] and in data set [9] were 10 mg/kg and 69 mg/kg, respectively. Moreover, the TD50 at 0.5 h in [11] was 100 mg/kg.

For `COC[C@@H](N)C(=O)NCc1ccc(OCc2cccc(F)c2)cc1`, the ED50 in [1] was 15 mg/kg; in [3], 13 mg/kg; in data set [18], less than 50 mg/kg. In addition, the Time in data set [2] is 0.5 h; in [7] it was 0.5 h; in [12], 0.5 h; in [13], 0.25 h. The result in data set [19] was inactive. For the same compound, in data set [4], the TD50 is greater than 500 mg/kg. The results for the “Ratio TD50/ED50” value in data set [5] and in [15] were greater than 38 and 3.9, respectively. The TD50 at 0.5 h in data set [11] was determined as 58 mg/kg.

For the compound `CC(C)[C@@H](N)C(=O)NCc1ccc(Cl)cc1`, the median effective dose (ED50) amounted to 22 mg/kg in data set [1], 22 mg/kg in data set [9] and 50 mg/kg in [18]. In addition, in data set [19], the outcome was inactive. Further, the Time in data set [7], in data set [12], in data set [13] and in [14] was 0.25 h throughout. Moreover, in [11], the TD50 at 0.5 h worked out at 74 mg/kg. Further, the “Ratio TD50/ED50” value in data set [15] stood at 3.4.

Consider `COC[C@@H](N)C(=O)NCc1ccc(Br)cc1.Cl`, for which the result in data set [19] was inactive. Further, the TD50 at 0.5 h in [6] was 115 mg/kg. Also, the ED50 in data set [8] is greater than 180 mg/kg; in [21], 31 mg/kg; in data set [16], 70 mg/kg. Also, the “Ratio TD50/ED50” value in [10] came out at 3.7; in data set [24], 1.6.

For the compound `CC(C)[C@@H](N)C(=O)NCc1ccc(OC(F)(F)F)cc1`, the ED50 in data set [1] turned out to be 16 mg/kg; in data set [3], 18 mg/kg; in [9] it was 16 mg/kg; in data set [18] it was 28 mg/kg. For the same compound, the Time in data set [2] stood at 1 h; in [7] it was 0.25 h; in data set [12] it was 0.5 h; in [13] it was 0.25 h; in data set [14] it was 0.25 h. Further, the result in [19] was inactive. In [4], the TD50 was greater than 500 mg/kg. In addition, the “Ratio TD50/ED50” value is reported as greater than 27 in [5] and 5.3 in [15]. Besides, the TD50 at 0.5 h in data set [11] was found to be 84 mg/kg.

Regarding `CC(C)[C@@H](N)C(=O)NCc1ccc(OCc2cccc(F)c2)cc1`, in data set [19], the outcome was inactive. Moreover, the ED50 is greater than 110 mg/kg in [8] and 12 mg/kg in data set [21]. The Activity in data set [25] came to 80%.

Turning to `CC(C)(C)[C@@H](N)C(=O)NCc1ccc(Cl)cc1`, the ED50 in [1] was 25 mg/kg; in data set [3], 30 mg/kg; in data set [9], 25 mg/kg; in data set [18], less than 100 mg/kg. For the same compound, the Time in [26] came out at 0.25 h; in data set [2], 0.25 h; in data set [7], 0.25 h; in data set [12], 0.25 h; in data set [13] it was 0.5 h; in data set [14] it was 0.25 h. Further, in data set [19], the result was inactive. In addition, the TD50 in data set [4] is greater than 30 mg/kg. Besides, the TD50 at 0.5 h in data set [11] came out at 84 mg/kg. The “Ratio TD50/ED50” value in data set [15] turned out to be 3.4.
